Data set [1] addresses T1, AT2R (Homo sapiens, UniProt P50052).
T1 construct: purchased Cisbio #C1TT1AT2
T1 sequence (P50052 1-363): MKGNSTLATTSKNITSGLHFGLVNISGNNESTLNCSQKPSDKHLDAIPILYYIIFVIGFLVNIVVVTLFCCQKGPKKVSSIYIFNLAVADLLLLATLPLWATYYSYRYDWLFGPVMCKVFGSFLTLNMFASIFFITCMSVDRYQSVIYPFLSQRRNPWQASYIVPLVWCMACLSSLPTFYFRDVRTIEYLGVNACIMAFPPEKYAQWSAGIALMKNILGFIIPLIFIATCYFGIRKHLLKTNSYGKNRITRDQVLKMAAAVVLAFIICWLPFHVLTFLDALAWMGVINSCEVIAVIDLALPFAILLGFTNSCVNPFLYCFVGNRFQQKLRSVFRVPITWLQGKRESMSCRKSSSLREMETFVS
The data set can be described thus: Binding assay of compounds to AT2R (Tag-lite HTRF ligand binding kit). The method, then:
The assay was performed in accordance with the manufacturer instructions of Angiotensin AT2 Receptor Ligand Binding Assay Kit (#C1TT1AT2, Cisbio). First, a 10 mM compound stock solution was diluted in a gradient at a 5× dilution ratio (including 10 concentrations, each with two replicates). 160 nL of compounds at different concentrations was added to a 384-well plate. 40 µL of 1× TLB (TLB: Tag-lite buffer) was added to each well, and the mixture was shaken at room temperature for 15 minutes. A 15 mL centrifuge tube added with 5 mL of 1×TLB was prepared in advance. The frozen labeled cells were thawed in a water bath at 37°C (for 1 to 2 minutes), and the thawed cells were quickly transferred to the above 15 mL centrifuge tube. The mixture was mixed well and centrifuged at 1,000 g at room temperature for 5 minutes. The supernatant was removed, and the cells were resuspended by adding 2.7 mL 1× TLB. A new 384-well plate was taken, and 10 µL of mixed cells were added into the corresponding wells according to the assay design. 5 µL of 4× compound solution and 5 µL of 4× Tag-lite red fluorescent labeled ligand were added to each well. After incubation at room temperature for 1 hour, data were read using EnVision with an HTRF mode. The […] at 665nM and 615nM in each well were read respectively, and the ratio was calculated (Ratio=A665nM/B615nM). The IC50 value was calculated by means of GraphPad Prism8 software, where X represents logarithmic value of compound concentration; and Y represents ratio of A665nM/B615nM.
(In TR-FRET formats the signal depends on donor and acceptor labels being close together.)

The nature of data set [2]: Liver microsomal stability assay. Type of data set: in vitro ADME. Particulars: human liver microsomes, NADPH, 37°C; read-out: T1/2 (min) Human. As to the method: The human liver microsome stability assay was performed by co-incubating the compound with human liver microsomes in vitro. The test compounds were first prepared as 10 mM stock solutions in DMSO solvent, and then diluted to 0.5 mM with acetonitrile. Human liver microsomes (Corning) were diluted with PBS to prepare a microsome/buffer solution, and this solution was used to dilute 0.5 mM of the compound to prepare a working solution. In the working solution, a concentration of the compound was 1.5 µM and a concentration of the human liver microsome was 0.75 mg/mL. A deep-well plate was taken, 30 µL of working solution was added to each well of the plate, and then 15 µL of pre-heated NADPH solution (6 mM) was added to start the reaction. The mixture was incubated at 37°C. 135 µL of acetonitrile was added to the corresponding wells to stop the reaction at 0 minute, 5 minutes, 15 minutes, 30 minutes, and 45 minutes of incubation. Subsequent to the stop of the reaction by means of acetonitrile at the last time point of 45 minutes, the plate was vortexed for 10 minutes (600 rpm/min) and then centrifuged for 15 minutes. After the centrifugation, the supernatant was taken, and purified water was added in a 1:1 ratio for LC-MS/MS detection. The ratio of a peak area of the compound to a peak area of the internal standard at individual time points was obtained. The peak area ratios of the compound at 5 minutes, 15 minutes, 30 minutes, and 45 minutes were compared with the peak area ratio at 0 minute, and the remaining percentage of the compound at each time point was calculated. T1/2 was calculated using Graphpad8 software. [Table 3] Liver Microsomal Stability of Compounds

The nature of data set [3]: Bidirectional permeability study in Caco-2 cells. Type of data set: in vitro ADME. Particulars: human, pH 7.4, Caco-2, 2.00 µM, A to B. The method, then:
Caco-2 cells were inoculated onto […] (PET) in 96-well inserted plates at a rate of 1×10^5 cells/cm^2, and the medium was changed every 4 to 5 days until day 21 to 28, to form a fused cell monolayer. The transport buffer in the assay was HBSS and 10.0 mM HEPES, with a pH of 7.40±0.05. The test compounds were subjected to a bidirectional test at 2.00 µM in the presence and absence of GF120918 (10.0 µM). Digoxin was subjected to a bidirectional test at 10.0 µM in the presence and absence of GF120918 (10.0 µM), while Nadolol and Metoprolol were subjected to a test from direction A to direction B at 2.00 µM in the absence of GF120918 (10.0 µM). The above tests were performed in duplicate. The final concentration of DMSO was adjusted to be lower than 1%. The plate was incubated in a CO2 incubator at 37°C±1°C for 2 hours, and 5% CO2 was added under saturated humidity without shaking. All the samples, after being mixed with acetonitrile containing internal standard, were centrifuged at 3,200 g for 10 minutes. For Nadolol and Metoprolol, 200 µL of supernatant was diluted with 600 µL of distilled water for LC-MS/MS analysis. For Digoxin and test compounds, 200 µL of supernatant was diluted with 200 µL of distilled water for LC-MS/MS analysis. The concentrations of the test compounds and control compounds in the starting solution, the donor solution, and the acceptor solution were quantified by LC-MS/MS based on a peak area ratio of the analyte to the internal standard.
After the transport assay, the integrity of the Caco-2 cell monolayer was determined using Lucifer Yellow Exclusion Assay. [Table 4] Bidirectional Permeability of Compounds in Caco-2 Cells
Background: Caco-2 cells form a polarised layer with tight junctions and transporters.

Usually IC50 stands for the concentration at which inhibition is half-maximal. The Papp A→B is how fast a substance crosses the layer from the apical side. High values mean fast passage, low ones slow passage. For `COC(=O)NS(=O)(=O)c1sc(CC(C)C)c(C)c1-c1ccc(Cn2ccnc2C(F)(F)F)cc1` [Compound I-9, Methyl ((5-isobutyl-4-methyl-3-(4-((2-(trifluoromethyl)-1H-imidazol-1-yl)methyl)phenyl)thiophen-2-yl)sulfonyl)carbamate], the IC50 in data set [1] is 5.13 nM. Besides, the half-life at 1 µM in data set [2] was found to be 50.2 min. For the same molecule, in data set [3], the Papp A→B at 2 h, 2 µM was 2.29 ×10⁻⁶ cm/s.

`Cc1c(CC(C)C)sc(S(=O)(=O)NC(=O)OCC(C)(C)O)c1-c1ccc(Cn2ccnc2C(F)(F)F)cc1` [Compound I-10, 2-hydroxy-2-methylpropyl ((5-isobutyl-4-methyl-3-(4-((2-(trifluoromethyl)-1H-imidazol-1-yl)methyl)phenyl)thiophen-2-yl)sulfonyl)carbamate] registered a concentration for half-maximal inhibition (IC50) in data set [1] of 2.31 nM. Also, the half-life at 1 µM in data set [2] amounted to 83.2 min. This molecule gave a Papp A→B at 2 h, 2 µM in data set [3] of 2.63 ×10⁻⁶ cm/s.

Consider `Cc1c(CC(C)C)sc(S(=O)(=O)NC(=O)OCCO)c1-c1ccc(Cn2ccnc2C(F)(F)F)cc1` [Compound I-13, 2-hydroxyethyl ((5-isobutyl-4-methyl-3-(4-((2-(trifluoromethyl)-1H-imidazol-1-yl)methyl)phenyl)thiophen-2-yl)sulfonyl)carbamate], for which the IC50 in data set [1] turned out to be 2.6 nM. Besides, in data set [2], the half-life at 1 µM amounted to 46.4 min. This molecule showed a Papp A→B at 2 h, 2 µM in data set [3] of 1.98 ×10⁻⁶ cm/s.

As for `COC(=O)NS(=O)(=O)c1sc(CC(C)C)c(C)c1-c1ccc(Cn2ccnc2Cl)c(F)c1` [Compound I-14, Methyl ((3-(4-((2-chloro-1H-imidazol-1-yl)methyl)-3-fluorophenyl)-5-isobutyl-4-methylthiophen-2-yl)sulfonyl)carbamate], the IC50 in data set [1] stood at 1.39 nM. In addition, the half-life at 1 µM in data set [2] worked out at 45 min. Besides, the Papp A→B at 2 h, 2 µM in data set [3] was found to be 3.73 ×10⁻⁶ cm/s.

`COC(=O)NS(=O)(=O)c1sc(CC(C)C)c(C)c1-c1ccc(Cn2ccnc2C(C)(C)O)cc1` [Compound I-19, Methyl ((3-(4-((2-(2-hydroxypropan-2-yl)-1H-imidazol-1-yl)methyl)phenyl)-5-isobutyl-4-methylthiophen-2-yl)sulfonyl)carbamate] displayed an IC50 in data set [1] of 2.91 nM. Further, in data set [2], the half-life at 1 µM came out at 71.2 min. In data set [3], this molecule had a Papp A→B at 2 h, 2 µM of 3.24 ×10⁻⁶ cm/s.

Take `Cc1c(CC(C)C)sc(S(=O)(=O)Nc2ncccn2)c1-c1ccc(Cn2ccnc2Cl)cc1` [Compound I-23, 3-(4-((2-chloro-1H-imidazol-1-yl)methyl)phenyl)-5-isobutyl-4-methyl-N-(pyrimidin-2-yl)thiophene-2-sulfonamide]: the IC50 in data set [1] turned out to be 1.79 nM. Also, the half-life at 1 µM in data set [2] was determined as 39.3 min. Moreover, in data set [3], the Papp A→B at 2 h, 2 µM worked out at 5.22 ×10⁻⁶ cm/s.

As for `CCCCOC(=O)NS(=O)(=O)c1sc(CC(C)C)cc1-c1ccc(Cn2ccnc2)cc1` [Control Compound I, reference compound], the half-life at 1 µM in data set [2] worked out at 9.13 min. Also, in data set [3], the Papp A→B at 2 h, 2 µM came to 0.381 ×10⁻⁶ cm/s.

Values taken from patent EP4768479A1 (Hubei Bio-Pharmaceutical Industrial Technological Institute …, priority 2023, dated 2025).
